Paper PMC12000319, “Proton conductance by human uncoupling protein 1 is inhibited by purine and pyrimidine nucleotides” (The EMBO Journal, 2025)
Values joined by “and” are separate entries in the source; they are usually repeats but may differ in a detail not shown here. Equal values may be shown once. Read-outs that look alike come from different tables or passages of the source.

Experiments:
[1] = biological target: T1, UCP1 (Homo sapiens, UniProt P25874); experiment: Isothermal titration calorimetry of nucleotide binding; parameters: isotherm data point (enthalpy change per injection): unit not given here; settings: for isotherm data point (enthalpy change per injection): representative isotherm, pH 6.0, 20 °C;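 for all read-outs here: purified human UCP1 in cacodylate buffer with lauryl maltose neopentyl glycol and cardiolipin, titrated with nucleotides, isotherms fitted by one-site model yielding ΔH, Kd and stoichiometry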
T1 construct: His8 (N, cleaved yes); Factor Xa protease cleavage site (N, cleaved yes); made in house; host or cells: Saccharomyces cerevisiae strain W303.1B
T1 sequence (P25874 1-307): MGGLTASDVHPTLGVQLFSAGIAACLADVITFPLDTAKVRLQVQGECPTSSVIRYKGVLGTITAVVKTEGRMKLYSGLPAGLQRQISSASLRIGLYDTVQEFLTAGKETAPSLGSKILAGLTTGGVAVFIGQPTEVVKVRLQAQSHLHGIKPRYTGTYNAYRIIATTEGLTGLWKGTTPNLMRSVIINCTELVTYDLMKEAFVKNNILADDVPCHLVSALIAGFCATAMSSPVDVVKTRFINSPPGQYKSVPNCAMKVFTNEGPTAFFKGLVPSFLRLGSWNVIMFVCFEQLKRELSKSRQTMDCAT

[2] = biological target: T2, human DIC (SLC25A10) (Homo sapiens, UniProt Q9UBX3); experiment: Differential scanning fluorimetry (nanoDSF) thermal stability shift assay; assay type: binding; settings: 1 mM nucleotide, pH 6.0, single repeats (source data Fig. 4A)
T2 construct: His8 (N, cleaved yes); Factor Xa protease cleavage site (N, cleaved yes); made in house; host or cells: Saccharomyces cerevisiae protease-deficient strain BJ2186
T2 sequence (Q9UBX3 1-287): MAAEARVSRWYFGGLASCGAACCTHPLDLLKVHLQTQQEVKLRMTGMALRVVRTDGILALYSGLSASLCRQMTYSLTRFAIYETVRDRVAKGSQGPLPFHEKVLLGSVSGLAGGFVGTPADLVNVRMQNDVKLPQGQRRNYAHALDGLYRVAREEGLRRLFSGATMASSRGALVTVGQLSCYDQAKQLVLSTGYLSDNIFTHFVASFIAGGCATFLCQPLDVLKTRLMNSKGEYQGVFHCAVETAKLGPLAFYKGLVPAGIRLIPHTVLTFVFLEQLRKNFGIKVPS

[3] = system: UCP1; parameters: method as in Heaton and Nicholls, 1977; settings: ref Heaton and Nicholls, 1977; cited from earlier work
[4] = biological target: T1, UCP1; experiment: Differential scanning fluorimetry (nanoDSF) thermal stability shift assay; assay type: binding; settings: for ΔTm at 1000 µM: read-out: thermal shift (ΔTm)
[5] = system: UCP1; parameters: method as in Heaton and Nicholls, 1977; Divakaruni et al, 2012; settings: whole mitochondria; ref Heaton and Nicholls, 1977; Divakaruni et al, 2012; cited from earlier work

binding affinity to UCP1 (in words) ([1]; ITC): intermediary affinities | isotherm data point (enthalpy change per injection) ([1]; Molar ratio (Nucleotide/UCP) 0.120417): -22.5081 | isotherm data point (enthalpy change per injection) ([1]; Molar ratio (Nucleotide/UCP) 0.181226): -22.8003 | isotherm data point (enthalpy change per injection) ([1]; Molar ratio (Nucleotide/UCP) 0.242439): -21.4037 | isotherm data point (enthalpy change per injection) ([1]; Molar ratio (Nucleotide/UCP) 0.304059): -20.9646 | isotherm data point (enthalpy change per injection) ([1]; Molar ratio (Nucleotide/UCP) 0.366087): -21.4794 | isotherm data point (enthalpy change per injection) ([1]; Molar ratio (Nucleotide/UCP) 0.428528): -19.8691 | isotherm data point (enthalpy change per injection) ([1]; Molar ratio (Nucleotide/UCP) 0.491383): -17.9061 | isotherm data point (enthalpy change per injection) ([1]; Molar ratio (Nucleotide/UCP) 0.554656): -18.3443 | isotherm data point (enthalpy change per injection) ([1]; Molar ratio (Nucleotide/UCP) 0.618348): -16.1153 | isotherm data point (enthalpy change per injection) ([1]; Molar ratio (Nucleotide/UCP) 0.682464): -14.9337 | isotherm data point (enthalpy change per injection) ([1]; Molar ratio (Nucleotide/UCP) 0.747006): -12.0255 | isotherm data point (enthalpy change per injection) ([1]; Molar ratio (Nucleotide/UCP) 0.811976): -11.5031 | isotherm data point (enthalpy change per injection) ([1]; Molar ratio (Nucleotide/UCP) 0.877378): -10.3349 | isotherm data point (enthalpy change per injection) ([1]; Molar ratio (Nucleotide/UCP) 0.943214): -7.729 | isotherm data point (enthalpy change per injection) ([1]; Molar ratio (Nucleotide/UCP) 1.00949): -6.6657 | isotherm data point (enthalpy change per injection) ([1]; Molar ratio (Nucleotide/UCP) 1.0762): -5.447 | isotherm data point (enthalpy change per injection) ([1]; Molar ratio (Nucleotide/UCP) 1.14336): -3.759 | isotherm data point (enthalpy change per injection) ([1]; Molar ratio (Nucleotide/UCP) 1.21096): -3.295 | isotherm data point (enthalpy change per injection) ([1]; Molar ratio (Nucleotide/UCP) 1.27901): -1.9786 | isotherm data point (enthalpy change per injection) ([1]; Molar ratio (Nucleotide/UCP) 1.34751): -1.408 | isotherm data point (enthalpy change per injection) ([1]; Molar ratio (Nucleotide/UCP) 1.41647): -0.3952 | isotherm data point (enthalpy change per injection) ([1]; Molar ratio (Nucleotide/UCP) 1.48589): -0.4843 | isotherm data point (enthalpy change per injection) ([1]; Molar ratio (Nucleotide/UCP) 1.55577): -0.1953 | isotherm data point (enthalpy change per injection) ([1]; Molar ratio (Nucleotide/UCP) 1.62611): -0.1185 | isotherm data point (enthalpy change per injection) ([1]; Molar ratio (Nucleotide/UCP) 1.69692): 0.2895 | isotherm data point (enthalpy change per injection) ([1]; Molar ratio (Nucleotide/UCP) 1.76819): -0.544 | isotherm data point (enthalpy change per injection) ([1]; Molar ratio (Nucleotide/UCP) 1.83995): -0.2075 | isotherm data point (enthalpy change per injection) ([1]; Molar ratio (Nucleotide/UCP) 1.91217): -0.08977 | isotherm data point (enthalpy change per injection) ([1]; Molar ratio (Nucleotide/UCP) 1.98488): 0.02152 | change in apparent melting temperature (ΔTm) of hDIC [2]: 0.8 and 0.6 | temperature shift (ΔTm) ([4]; 1 mM nucleotide, pH 6.0, detergent-solubilised UCP1, mean of three biological repeats): 15.3 °C | effect of Ca2+ or Mg2+ on nucleotide binding to UCP1 (ΔTm) ([4]; 1 mM nucleotide, pH 6.0, range of Ca2+ or Mg2+ concentrations, until supramaximal concentrations): no difference for either cation | ΔTm at 1000 µM ([4]; pH 6, 1 mM nucleotide, pH 6.0, single repeats (source data Fig. 1D)): 15.7 °C | ΔTm at 1000 µM ([4]; pH 6.5, 1 mM nucleotide, pH 6.5, single repeats (source data Fig. 1D)): 11.1 °C | ΔTm at 1000 µM ([4]; pH 7, 1 mM nucleotide, pH 7.0, single repeats (source data Fig. 1D)): 6.3 °C | ΔTm at 1000 µM ([4]; pH 7.5, 1 mM nucleotide, pH 7.5, single repeats (source data Fig. 1D)): 1.4 °C
SMILES: O=c1ccn([C@@H]2O[C@H](CO[P@@](=O)(O)O[P@@](=O)(O)OP(=O)(O)O)[C@@H](O)[C@H]2O)c(=O)[nH]1 (stereo in doubt) [UTP, uridine triphosphate]
inhibition of proton conductance [3]: significantly lower than that of purine nucleotides | competition with GDP binding [5]: could only weakly compete with GDP binding
